Reference: PMC6094398, “New tools for evaluating protein tyrosine sulfation: tyrosylprotein sulfotransferases (TPSTs) are novel targets for RAF protein kinase inhibitors” (Biochemical Journal, 2018)
pIC50: −log10 of the molar value.

Experiments:
[1] = tested on: heparin sulfate 2-O sulfotransferase HS2ST; parameters: method as in PMID 29934491; settings: cited from earlier work
human TPST2 [2] = target: T1, human TPST2 (Homo sapiens, UniProt O60704); test: Differential scanning fluorimetry (thermal shift) assay with TPST2; assay type: binding; settings: DSF, TPST2 5 µM, 10 µM rottlerin
T1 construct: TPST2 (residues Gly43–Leu359) enzymes lacking the transmembrane domains; made in house; host or cells: E. coli BL21 (DE3) pLysS
T1 sequence (O60704 43-359): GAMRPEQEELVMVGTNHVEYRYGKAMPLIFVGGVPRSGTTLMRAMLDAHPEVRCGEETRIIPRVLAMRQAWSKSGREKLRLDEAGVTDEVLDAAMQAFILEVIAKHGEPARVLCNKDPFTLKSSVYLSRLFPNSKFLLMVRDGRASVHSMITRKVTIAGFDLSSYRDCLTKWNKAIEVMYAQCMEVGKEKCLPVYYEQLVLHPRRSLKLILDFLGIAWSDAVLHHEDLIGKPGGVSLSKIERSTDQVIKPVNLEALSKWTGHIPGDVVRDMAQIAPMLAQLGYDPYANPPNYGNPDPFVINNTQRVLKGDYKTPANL

human TPST1 [3] = target: T2, human TPST1 (Homo sapiens, UniProt O60507); test: Differential scanning fluorimetry (thermal shift) assay with TPST1; assay type: binding; settings: DSF, TPST1 5 µM, 10 µM rottlerin
T2 construct: human TPST1 (residues Lys43–Leu360) and TPST2 (residues Gly43–Leu359) enzymes lacking the transmembrane domains; made in house; host or cells: E. coli BL21 (DE3) pLysS
T2 sequence (O60507 43-360): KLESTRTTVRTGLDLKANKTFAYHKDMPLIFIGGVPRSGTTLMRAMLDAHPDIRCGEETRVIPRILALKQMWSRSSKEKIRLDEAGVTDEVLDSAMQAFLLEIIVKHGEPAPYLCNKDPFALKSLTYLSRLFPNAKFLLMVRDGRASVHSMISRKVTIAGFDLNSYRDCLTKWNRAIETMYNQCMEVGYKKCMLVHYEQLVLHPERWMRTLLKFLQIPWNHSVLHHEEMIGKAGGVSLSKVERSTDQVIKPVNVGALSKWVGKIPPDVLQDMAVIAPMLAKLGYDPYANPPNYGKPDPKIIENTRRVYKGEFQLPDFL

human TPST1 [4] = target: T2, human TPST1; test: EZ Reader II microfluidic mobility-shift CC4-tide sulfation assay, TPST1; assay type: biochemical; settings: 10 µM PAPS
human TPST2 [5] = target: T1, human TPST2; test: EZ Reader II microfluidic mobility-shift CC4-tide sulfation assay, TPST2; assay type: biochemical
human TPST1 [6] = target: T2, human TPST1; test: GST-CC4-tide tyrosine sulfation by TPST1, immunoblotting with monoclonal sulfotyrosine antibody; assay type: biochemical; settings: GST-CC4-tide 1 µg, 10 µM PAPS, increasing concentrations of inhibitor
Description: After the assay, proteins were denatured in Laemmli sample buffer, heated at 95°C for 5 min and then analysed by SDS–PAGE with 10% (v/v) polyacrylamide gels. Gels were stained and destained using a standard Coomassie Brilliant Blue protocol. To evaluate protein sulfation and phosphorylation by immunoblotting, standard western blotting procedures were followed using monoclonal anti-sulfotyrosine antibody clone Sulfo-1C-A2 (Millipore) generated using a phage display procedure and sulfotyrosine selection peptide antigens in the presence of appropriate positive and negative controls, and modifications visualised using the ECL reagent.

In the case of `CC(=O)c1c(O)c(C)c(O)c(Cc2c(O)c3c(c(C(=O)/C=C/c4ccccc4)c2O)OC(C)(C)C=C3)c1O` [Rottlerin], the “HS2ST inhibition in vitro (in words)” value [1] is listed as “inhibitory activity”, the “Thermal shift of TPST2 (in words)” value (human TPST2 [2]) is listed as “positive” and the “Thermal shift of TPST1 (in words)” value (human TPST1 [3]) is listed as “positive”. For the same compound, the pIC50 (human TPST1 [4]; TPST1 IC50 (rottlerin dose-response), Fig 6A, CC4-tide, normalised to 1% DMSO) was 6.30, the pIC50 (human TPST1 [4]; TPST1 IC50, previously described compounds, Fig 6C, CC4-tide, normalised to 1% DMSO) was about 6.00 and the pIC50 (human TPST1 [4]; TPST1 estimated IC50, RAF kinase inhibitors, Fig 8B, TPST1 0.1 µM pre-incubated with compound) was 6.22. The pIC50 (human TPST2 [5]) was 5.94 and the “Inhibition of GST-CC4-tide tyrosine sulfation by TPST1 (immunoblot, in words)” value (human TPST1 [6]) was “dose-dependent inhibition”.
